Among the data in US8461170B2, “Chemical compounds” (Astrazeneca AB, priority 2010, dated 2013) are IC50 values, retold here.

Molecules are shown by their SMILES.

T1 sequence (Q9UM73 1058-1620): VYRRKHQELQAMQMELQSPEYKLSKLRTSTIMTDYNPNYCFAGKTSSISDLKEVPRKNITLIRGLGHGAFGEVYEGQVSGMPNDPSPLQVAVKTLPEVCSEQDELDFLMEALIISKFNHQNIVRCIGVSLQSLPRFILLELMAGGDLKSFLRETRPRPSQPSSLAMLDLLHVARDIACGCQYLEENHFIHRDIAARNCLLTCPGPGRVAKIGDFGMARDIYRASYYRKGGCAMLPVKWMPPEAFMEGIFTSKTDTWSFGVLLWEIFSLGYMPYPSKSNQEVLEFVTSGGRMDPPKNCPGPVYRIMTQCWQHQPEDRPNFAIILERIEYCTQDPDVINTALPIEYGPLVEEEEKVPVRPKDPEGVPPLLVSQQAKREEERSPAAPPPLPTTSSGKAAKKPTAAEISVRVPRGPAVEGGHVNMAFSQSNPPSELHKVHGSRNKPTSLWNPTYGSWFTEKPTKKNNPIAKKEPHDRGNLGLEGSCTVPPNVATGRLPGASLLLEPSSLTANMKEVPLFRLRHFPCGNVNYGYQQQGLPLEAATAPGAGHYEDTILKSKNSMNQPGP
Chain of ALK (h) (Q9UM73 19-1620): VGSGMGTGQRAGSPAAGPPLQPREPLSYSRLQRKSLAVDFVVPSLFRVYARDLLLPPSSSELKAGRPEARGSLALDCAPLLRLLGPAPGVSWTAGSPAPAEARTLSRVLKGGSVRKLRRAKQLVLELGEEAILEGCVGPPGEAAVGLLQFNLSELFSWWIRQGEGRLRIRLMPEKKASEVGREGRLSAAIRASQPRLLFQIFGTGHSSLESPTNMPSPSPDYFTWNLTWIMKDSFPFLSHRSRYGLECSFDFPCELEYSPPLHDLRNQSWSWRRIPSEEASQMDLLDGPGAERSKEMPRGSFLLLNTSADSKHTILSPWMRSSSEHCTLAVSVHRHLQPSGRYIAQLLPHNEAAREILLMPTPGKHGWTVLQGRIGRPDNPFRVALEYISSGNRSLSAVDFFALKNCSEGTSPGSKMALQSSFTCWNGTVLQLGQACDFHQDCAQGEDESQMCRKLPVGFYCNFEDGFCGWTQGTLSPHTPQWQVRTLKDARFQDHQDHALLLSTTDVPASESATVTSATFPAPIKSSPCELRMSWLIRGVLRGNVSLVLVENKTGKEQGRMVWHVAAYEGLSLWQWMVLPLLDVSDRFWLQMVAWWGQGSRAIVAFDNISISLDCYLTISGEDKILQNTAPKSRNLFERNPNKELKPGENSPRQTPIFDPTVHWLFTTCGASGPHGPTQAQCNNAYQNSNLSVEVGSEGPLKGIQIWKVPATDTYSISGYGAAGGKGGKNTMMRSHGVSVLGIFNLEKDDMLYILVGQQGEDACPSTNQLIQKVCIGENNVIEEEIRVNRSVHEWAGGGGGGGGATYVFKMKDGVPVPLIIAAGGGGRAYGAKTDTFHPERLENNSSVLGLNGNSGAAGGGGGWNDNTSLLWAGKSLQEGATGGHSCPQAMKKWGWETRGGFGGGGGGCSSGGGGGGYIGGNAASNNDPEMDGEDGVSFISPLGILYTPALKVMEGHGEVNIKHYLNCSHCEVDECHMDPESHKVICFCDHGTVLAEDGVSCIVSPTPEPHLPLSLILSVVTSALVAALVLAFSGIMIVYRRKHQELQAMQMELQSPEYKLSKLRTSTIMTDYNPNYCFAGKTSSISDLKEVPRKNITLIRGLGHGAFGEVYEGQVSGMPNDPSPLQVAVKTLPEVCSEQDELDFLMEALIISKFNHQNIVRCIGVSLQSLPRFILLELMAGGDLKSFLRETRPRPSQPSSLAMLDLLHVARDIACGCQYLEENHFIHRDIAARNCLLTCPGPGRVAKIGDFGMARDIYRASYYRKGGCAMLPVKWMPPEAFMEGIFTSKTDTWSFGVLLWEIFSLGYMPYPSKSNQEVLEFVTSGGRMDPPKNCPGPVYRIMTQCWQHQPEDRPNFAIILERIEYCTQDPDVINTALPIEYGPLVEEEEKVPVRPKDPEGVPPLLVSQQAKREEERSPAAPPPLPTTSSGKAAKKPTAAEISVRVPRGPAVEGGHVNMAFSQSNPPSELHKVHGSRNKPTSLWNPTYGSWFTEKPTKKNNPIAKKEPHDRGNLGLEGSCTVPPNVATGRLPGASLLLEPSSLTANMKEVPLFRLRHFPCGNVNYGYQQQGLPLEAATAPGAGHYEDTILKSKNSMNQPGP

The first test has as its target T1, human ALK (Homo sapiens, UniProt Q9UM73).
T1 construct: GST (N); purchased Invitrogen, Carlsbad, Calif; (or prepared by AstraZeneca); host or cells: insect cells
Briefly: ALK kinase mobility shift assay (Caliper LC3000). Format: biochemical. The settings on record: cumulative geometric means including test re-runs, some obtained since the priority filings; ATP 30 μM (Km) or 5 mM, not specified which; read-out: ALK Enzyme IC50 (μM)**. The protocol: ALK kinase activity was determined by measuring the kinase's ability to phosphorylate a tyrosine residue within a peptide substrate using a mobility shift assay on a Caliper LC3000 reader (Caliper Life Sciences, Hopkinton, Mass.), which measures fluorescence of the phosphorylated and unphosphorylated substrate and calculates a ratiometric value to determine percent turnover.
To measure ALK kinase activity, the ALK enzyme used was N-terminal GST-tagged, recombinant, human ALK, amino acids 1058-1620 (Genbank Accession number NP_004295) expressed in insect cells and activated in-vitro via autophosphorylation. This was either purchased from a commercially available source (Invitrogen, Carlsbad, Calif.) or prepared by AstraZeneca. The kinase was incubated with a FAM labeled SRCtide substrate (5FAM-GEEPLYWSFPAKKK-NH2, AnaSpec, Fremont, Calif.), 30 μM adenosine triphosphate (ATP, at Km concentration) or 5 mM ATP, 50 mM HEPES buffer (pH 7.3), 1 mM DTT, 0.01% Tween 20, 50 μg/ml BSA and 10 mM MgCl2 for 90 minutes at room temperature. After this time, the kinase reaction was stopped by adding quenching buffer containing final concentrations of 36 mM ethylenediaminetetraacetic acid (EDTA), 65 mM HEPES buffer (pH 7.3), 0.2% Coatin Reagent 3 (Caliper Life Sciences, Hopkinton, Mass.), and 0.003% Tween 20. The reaction was performed in 384 well microtitre plates and the reaction products were detected using the Caliper LC3000 Reader in the presence of separation buffer consisting of 100 mM HEPES (pH 7.3), 15.8 mM EDTA, 0.1% Coatin Reagent 3 (Caliper, Mass.), 0.015% Brij-35, 5% DMSO, and 5.6 mM MgCl2. The separation conditions set up on the Caliper LC3000 were −1.7 PSI, −400V upstream voltage, −2000V downstream voltage, 0.2 second sample sip, 45 second post sip, and 150 seconds final delay. The percentage of inhibition of ALK enzyme activity by compounds were measured based on Max signals (DMSO control) and Min signals (EDTA control) in the plates. Data was graphed and IC50s calculated by IDBS ActivityBase program.
In the case of `COc1cc(N2CCC(N3CCN(C)CC3)CC2)ccc1Nc1ncc(F)c(-c2c[nH]c3ccccc23)n1` [Example 7, 5-Fluoro-4-(1H-Indol-3-yl)-N-(2-methoxy-4-(4-(4-methylpiperazin-1-yl)piperidin-1-yl)phenyl)pyrimidin-2-amine], the IC50 is 0.079 µM. The same measure, in the same setting: in the case of `COc1cc(N2CCC(N)C(F)C2)ccc1Nc1ncc(Cl)c(-c2c[nH]c3ccccc23)n1` (single isomer, unassigned) [Example 46, (trans)-N-(4-(4-amino-3-fluoropiperidin-1-yl)-2-methoxyphenyl)-5-chloro-4-(1H-indol-3-yl)pyrimidin-2-amine] it was 0.039 µM; in that of `COc1cc(N2CCC(N(C)C)C(C)(C)C2)ccc1Nc1ncc(Cl)c(-c2c[nH]c3ccccc23)n1` (stereo not drawn) [Example 32, 5-chloro-N-(4-(4-(dimethylamino)-3,3-dimethylpiperidin-1-yl)-2-methoxyphenyl)-4-(1H-indol-3-yl)pyrimidin-2-amine], 0.356 µM; in that of `COc1cc(N2CCC(N)C(F)C2)ccc1Nc1ncc(Cl)c(-c2c[nH]c3ccccc23)n1` (single isomer, unassigned) [Example 45, (trans)-N-(4-(4-amino-3-fluoropiperidin-1-yl)-2-methoxyphenyl)-5-chloro-4-(1H-indol-3-yl)pyrimidin-2-amine], 0.061 µM. Still for that read-out and setting: the figure for `COc1cc(P2(=O)CCC(N)CC2)ccc1Nc1ncc(C)c(-c2c[nH]c3ccccc23)n1` (single isomer, unassigned) [Example 44, N-[4-(4-amino-1-oxidophosphinan-1-yl)-2-methoxyphenyl]-4-(1H-indol-3-yl)-5-methylpyrimidin-2-amine] is 0.02 µM.

The test is the same for the next values; noted with them: geometric means of multiple test runs, as presented in the priority filings; ATP 30 μM (Km) or 5 mM, not specified which; read-out: ALK Enzyme IC50 (μM)*.
`COc1cc(N2CCC(N3CCN(C)CC3)CC2)ccc1Nc1ncc(Cl)c(-c2c[nH]c3ccccc23)n1` [Example 10, 5-Chloro-4-(1H-indol-3-yl)-N-(2-methoxy-4-(4-(4-methylpiperazin-1-yl)piperidin-1-yl)phenyl)pyrimidin-2-amine]: the IC50 was 0.02 µM. On the same count and under the same terms, the figure for `COc1cc(N2CCC(N3CCN(C)CC3)CC2)ccc1Nc1ncc(Cl)c(-c2cn(C)c3ccccc23)n1` [Example 34, 5-Chloro-N-(2-methoxy-4-(4-(4-methylpiperazin-1-yl)piperidin-1-yl)phenyl)-4-(1-methyl-1H-indol-3-yl)pyrimidin-2-amine] is 0.148 µM; for `COc1cc(N2CCC(N3CCN(C)CC3)CC2)c(C)cc1Nc1ncc(Cl)c(-c2c[nH]c3ccccc23)n1` [Example 14, 5-Chloro-4-(1H-indol-3-yl)-N-(2-methoxy-5-methyl-4-(4-(4-methylpiperazin-1-yl)piperidin-1-yl)phenyl)pyrimidin-2-amine] it is 0.024 µM. On the same count and under the same terms, the figure for `COc1cc(N2CCC(N3CCN(C)CC3)CC2)ccc1Nc1ncc(F)c(-c2cn(C)c3ccccc23)n1` [Example 36, 5-fluoro-N-(2-methoxy-4-(4-(4-methylpiperazin-1-yl)piperidin-1-yl)phenyl)-4-(1-methyl-1H-indol-3-yl)pyrimidin-2-amine] is 1.48 µM. Same read-out and setting: in the case of `COc1cc(N2CCC(N3CCN(C)CC3)CC2)ccc1Nc1ncc(F)c(-c2c[nH]c3ccccc23)n1` [Example 7, 5-Fluoro-4-(1H-Indol-3-yl)-N-(2-methoxy-4-(4-(4-methylpiperazin-1-yl)piperidin-1-yl)phenyl)pyrimidin-2-amine] it was 0.041 µM; in that of `COc1cc(N2CCC(N3CCN(C)CC3)CC2)ccc1Nc1ncc(C(F)(F)F)c(-c2c[nH]c3ccccc23)n1` [Example 8, 4-(1H-Indol-3-yl)-N-(2-methoxy-4-(4-(4-methylpiperazin-1-yl)piperidin-1-yl)phenyl)-5-(trifluoromethyl)pyrimidin-2-amine], 0.061 µM. In the case of `COc1cc(N2CCC(N(C)C)CC2)ccc1Nc1ncc(C(F)(F)F)c(-c2c[nH]c3ccccc23)n1` [Example 29, N-(4-(4-(dimethylamino)piperidin-1-yl)-2-methoxyphenyl)-4-(1H-indol-3-yl)-5-(trifluoromethyl)pyrimidin-2-amine], the IC50 was determined as 0.021 µM. The same measure, in the same setting: the figure for `COc1cc(N2CCC(N(C)C)CC2)c(C)cc1Nc1ncc(Cl)c(-c2c[nH]c3ccccc23)n1` [Example 16, 5-Chloro-N-(4-(4-(dimethylamino)piperidin-1-yl)-2-methoxy-5-methylphenyl)-4-(1H-indol-3-yl)pyrimidin-2-amine] is 0.019 µM; for `COc1cc(N2CCC(N3CCN(S(C)(=O)=O)CC3)CC2)ccc1Nc1ncc(Cl)c(-c2c[nH]c3ccccc23)n1` [Example 21, 5-Chloro-4-(1H-indol-3-yl)-N-(2-methoxy-4-{4-[4-(methylsulfonyl)piperazin-1-yl]piperidin-1-yl}phenyl)pyrimidin-2-amine] it is 0.235 µM; for `COc1cc(N2CCC(N3CCN(C)CC3)CC2)ccc1Nc1ncc(Br)c(-c2c[nH]c3ccccc23)n1` [Example 27] it is 0.033 µM. As for `COc1cc(N2CCC(N3CCNCC3)CC2)ccc1Nc1ncc(Cl)c(-c2c[nH]c3ccccc23)n1` [Example 3, 5-Chloro-4-(1H-indol-3-yl)-N-(2-methoxy-4-(4-(piperazin-1-yl)piperidin-1-yl)phenyl)pyrimidin-2-amine], the IC50 is 0.07 µM. The same measure, in the same setting: the figure for `COc1cc(N2CCC(N(C)C)CC2)c(C)cc1Nc1ncc(C)c(-c2c[nH]c3ccccc23)n1` [Example 17, N-(4-(4-(Dimethylamino)piperidin-1-yl)-2-methoxy-5-methylphenyl)-4-(1H-indol-3-yl)-5-methylpyrimidin-2-amine] is 0.047 µM; for `COc1cc(N2CCC(NC3CC3)CC2)ccc1Nc1ncc(Cl)c(-c2c[nH]c3ccccc23)n1` [Example 6, 5-Chloro-N-(4-(4-(cyclopropylamino)piperidin-1-yl)-2-methoxyphenyl)-4-(1H-indol-3-yl)pyrimidin-2-amine] it is 0.058 µM; for `COc1cc(N2CCC(N3CCN(C)CC3)CC2)c(Cl)cc1Nc1ncc(Cl)c(-c2c[nH]c3ccccc23)n1` [Example 40, 5-chloro-N-[5-chloro-2-methoxy-4-[4-(4-methylpiperazin-1-yl)-1-piperidyl]phenyl]-4-(1H-indol-3-yl)pyrimidin-2-amine] it is 0.198 µM. Still for that read-out and setting: the figure for `COc1cc(N2CCC(N)CC2)ccc1Nc1ncc(Cl)c(-c2cn(C)c3ccccc23)n1` [Example 35, N-(4-(4-aminopiperidin-1-yl)-2-methoxyphenyl)-5-chloro-4-(1-methyl-1H-indol-3-yl)pyrimidin-2-amine] is 0.098 µM; for `COc1cc(N2CCC(N3CCN(C)CC3)CC2)c(C)cc1Nc1ncc(C)c(-c2c[nH]c3ccccc23)n1` [Example 15, 4-(1H-Indol-3-yl)-N-(2-methoxy-5-methyl-4-(4-(4-methylpiperazin-1-yl)piperidin-1-yl)phenyl)-5-methylpyrimidin-2-amine] it is 0.144 µM. With `COc1cc(N2CCC(N3CCN(C)CC3)CC2)c(F)cc1Nc1ncc(F)c(-c2c[nH]c3ccccc23)n1` [Example 37, 5-Fluoro-N-[5-fluoro-2-methoxy-4-[4-(4-methylpiperazin-1-yl)-1-piperidyl]phenyl]-4-(1H-indol-3-yl)pyrimidin-2-amine], the IC50 was found to be 0.244 µM. On the same count and under the same terms, the figure for `COc1cc(N2CCC(N(C)C)C(C)(C)C2)ccc1Nc1ncc(Cl)c(-c2c[nH]c3ccccc23)n1` (stereo not drawn) [Example 32, 5-chloro-N-(4-(4-(dimethylamino)-3,3-dimethylpiperidin-1-yl)-2-methoxyphenyl)-4-(1H-indol-3-yl)pyrimidin-2-amine] is 0.343 µM. For `COc1cc(N2CCC(N3CCN(C(C)C)CC3)CC2)ccc1Nc1ncc(Cl)c(-c2c[nH]c3ccccc23)n1` [Example 23, 5-Chloro-4-(1H-indol-3-yl)-N-(4-(4-(4-isopropylpiperazin-1-yl)piperidin-1-yl)-2-methoxyphenyl)pyrimidin-2-amine], the IC50 turned out to be 0.028 µM. On to `COc1cc(N2CCC(N3CCN(C)CC3)CC2)c(F)cc1Nc1ncc(Cl)c(-c2c[nH]c3ccccc23)n1` [Example 39, 5-chloro-N-[5-fluoro-2-methoxy-4-[4-(4-methylpiperazin-1-yl)-1-piperidyl]phenyl]-4-(1H-indol-3-yl)pyrimidin-2-amine], for which the IC50 came out at 0.225 µM.

With `COc1cc(N2CCC(N)CC2)ccc1Nc1ncc(C)c(-c2c[nH]c3ccccc23)n1` [Example 5, N-(4-(4-Aminopiperidin-1-yl)-2-methoxyphenyl)-4-(1H-indol-3-yl)-5-methylpyrimidin-2-amine], the IC50 is 0.03 µM.

In the next test the target is ALK (h) (Homo sapiens, UniProt Q9UM73). Briefly: alternate ALK protocol (33P-ATP filter-binding radiometric assay). The class given is biochemical. The settings on record: 250 μM KKKSPGEYVNIEFG substrate, [γ-33P-ATP], 40 minutes at room temperature, read-out: ALK inhibitory activities (IC50s (μM)). As for the experimental part:
Examples 1, 9 and 10 were additionally tested using an alternate ALK protocol as follows: ALK (h) was incubated with 8 mM MOPS pH 7.0, 0.2 mM EDTA, 250 μM KKKSPGEYVNIEFG, 10 mM MgAcetate and [γ-33P-ATP] (specific activity approx. 500 cpm/pmol, concentration as required). The reaction was initiated by the addition of the MgATP mix. After incubation for 40 minutes at room temperature, the reaction was stopped by the addition of 3% phosphoric acid solution. 10 μL of the reaction was spotted onto a P30 filtermat and washed three times for 5 minutes in 75 mM phosphoric acid and once in methanol prior to drying and scintillation counting. When tested in the assay described above, Examples 1, 9 and 10 each had ALK inhibitory activities (IC50s (μM)) of 0.004, 0.019, and 0.006, respectively.
Take `COc1cc(N2CCC(N3CCN(C)CC3)CC2)ccc1Nc1ncc(Cl)c(-c2c[nH]c3ccccc23)n1` [Example 10, 5-Chloro-4-(1H-indol-3-yl)-N-(2-methoxy-4-(4-(4-methylpiperazin-1-yl)piperidin-1-yl)phenyl)pyrimidin-2-amine]: the IC50 is 0.006 µM.
